The source of these data is patent US10220096B2, “Injectable and stable hydrogels with dynamic properties modulated by biocompatible catalysts” (The Board of Trustees of the Leland Stanford Junior …, priority 2016, dated 2019).

Where only a bound is given, the exact number is not on record here.

The nature of series [1]: Rheological tests of HA-hydrazone hydrogels (time sweep, frequency sweep, stress relaxation). The series is classed as physicochemical. Conditions: for τ1/2, time for stress to relax to half of its original value: about 10% strain. Here is the method: HA-hydrazine and HA-aldehyde were first solubilized in PBS (1×, pH of about 7.4) at 5 wt. % respectively. Catalyst 1 and 2 were dissolved in PBS (1×, pH of about 7.4) and adjusted pH to about 7.4 at a stock concentration of about 250 mM. HA hydrogels were prepared by mixing HA-hydrazine, catalyst, and HA-aldehyde stock solutions successively at hydrazine to aldehyde (molar) ratio of about 1:1. The volumes of stock solutions were adjusted to make gels with different formulations.
Rheological characterization was performed on a stress-controlled rheometer (AR-G2, TA instrument) using a 20 mm cone plate. About 45 μL of a sample was loaded immediately onto the rheometer after mixing to gel in situ on the rheometer and a humidity chamber was secured in place to prevent dehydration. All the tests were performed at about 37° C. Time sweeps were performed at about 1 Hz at about 1% constant strain. Frequency sweeps were performed from about 0.1 to about 10 Hz at about 1% constant strain. Stress relaxation experiments were performed at about 10% strain.

The nature of series [2]: Compression test, remoldability of hydrogels. The series is classed as physicochemical. Conditions: hydrogel containing about 100 mM of 1. From the text: FIG. 9. Compression test showing remoldability of HA-hydrazone hydrogels was improved with the addition of a catalyst.
Series [3] in a line: Kinetic measurements on hydrazone exchange (model reaction, HPLC). Conditions: for k1, rate of hydrazone formation / k−1, rate of hydrazone cleavage: PBS pH about 7.4, about 37° C. Here is the method:
2-(aminomethyl)benzimidazole (1 in FIG. 2) is an efficient catalyst to accelerate hydrazone formation owing to facilitated intramolecular proton transfer in the transition state. The rates for hydrazone formation (k1) and cleavage (k−1) in the presence of 1 were measured using model reactions between hydrazine and aldehyde and modeled for a reversible second-order reaction (FIG. 8), and the equilibrium constant (Keq) was calculated from these rate constants. […] The gelation time of the HA-hydrazone hydrogels was dramatically shortened in the presence of 1. […] In the presence of about 25 mM of 1, gelation occurred in less than about 60 s and reached a final plateau shear modulus of about 800 Pa in about 5 min (FIG. 3b). Increasing the catalyst loading to about 100 mM further shortened the time to reach equilibrium to about 3 min (FIG. 3b). As shown in the frequency sweep experiment (FIG. 3c), stable gels were formed with a plateau storage modulus (G′) of about 1 kPa, which is more than an order of magnitude higher than the loss modulus (G″). […] In contrast, altering the HA polymer composition from about 1 to about 4 wt. % increased the plateau modulus (FIG. 3c). […] The rate of stress relaxation under constant strain was quantified by the time for the initially measured stress to relax to half of its original value, τ1/2. […] Accelerated hydrazone exchange by an incorporated catalyst also allowed these hydrogels to be readily remolded macroscopically (FIG. 9), facilitating their injection and re-processing. […] Therefore, the design provides a strategy to tune the modulus and rate of stress relaxation, two important mechanical properties for dynamic hydrogel materials, independently and continuously by polymer concentration and catalyst concentration, respectively.
The equilibrium constant (Keq) and rate constants for hydrazone formation (k1) and cleavage (k−1) between aldehyde S1 and hydrazine S3 as model compounds with different concentrations of catalyst 1 were measured by HPLC. S3 was synthesized by coupling N-(2-aminoethyl)-4-amino-1,8-naphthalimide with hydrazine using carbodiimide chemistry. About 2 mM stock solutions of hydrazine and aldehyde were prepared in a PBS buffer (1×, pH of about 7.4). An about 250 mM stock solution of catalyst 1 was prepared in PBS as described in the previous sections.
For the reactions performed in the absence of catalyst, about 10 μL of hydrazine and about 10 μL of aldehyde stock solutions were added to about 980 μL PBS buffer (1×, pH of about 7.4). For the reactions performed in the presence of catalyst 1, the appropriate amount of catalyst 1, hydrazine, and aldehyde were sequentially added to PBS buffer (1×, pH of about 7.4) from their stock solutions, maintaining the same concentrations for hydrazine and aldehyde as those without a catalyst. The reactions were performed at about 37° C. in a water bath and followed using HPLC with detection at about 420 nm absorption (HPLC conditions: XBridge 10 μm C18 column; about 40% acetonitrile in PBS buffer (pH of about 7) isocratic elution in about 7 min at a flow rate of about 0.34 mL/min. The concentrations and conversions were calculated from the integrals of the HPLC signals. The kinetic data of hydrazone formation were fitted to a kinetic model for 2nd order reactions using Matlab (FIG. 8).
Conditions: about 137 mM NaCl, about 2.7 mM KCl, about 12 mM phosphate, pH of about 7.4 buffer, about 37° C.

The test system of series [4] is Human Umbilical Vein Endothelial Cells (HUVECs). Description: Catalyst toxicity, MTT cell viability assay. In kind it is cell-based. Conditions: 2D culture. Here is the method: Human Umbilical Vein Endothelial Cells (HUVECs) were obtained from Lonza. HUVECs were expanded in growth medium composed of about 10% fetal bovine serum, about 1% penicillin/streptomycin in EBM-2. The medium was changed every about 3 d and the cells were passaged at about 70% confluency. Cells were used at passage 5 or lower for all experiments.
HUVECs pre-seeded in 96-well plates at about 10^4 cells/well were incubated with catalysts 1 and 2 for about 1 h, about 4 h, about 24 h and about 72 h. Afterwards, the cells were washed with PBS, the cell viability MTT assay was carried out to determine the cell viabilities relative to the control cells incubated with the same volume of PBS.

A short description of series [5]: Ejection of hydrogel through 28-gauge syringe needle (injectability). In kind it is physicochemical. Particulars: about 2 wt. % hydrogel with about 25 mM of 2. Here is the method: (§1) Evaluation was performed on the effect of catalyst 2 incorporated in HA-hydrazone hydrogels on the protection of encapsulated cells during injection. HUVECs were homogeneously encapsulated in about 2 wt. % hydrogels containing about 25 mM of 2 by rapidly mixing the cells suspended in HA solutions with catalyst and transferring to a syringe. Hydrogel was rapidly formed in the syringe and ejected through a 28-gauge syringe needle. A syringe pump was used for all cell injection experiments to ensure consistent flow rate for accurate comparison between all samples.

Series [6] is described as follows: Hydrogel erosion study (uronic acid assay). In kind it is physicochemical. How it is done: Long-term stability of hydrogel scaffolds is often desired to provide support for cell adhesion and growth after cell injection. Rapid hydrogel erosion is a challenge for many dynamic and injectable hydrogels. It is proposed that rapid passive diffusion of the dissolved small molecule catalyst away from the hydrogel post-injection would slow down the dynamic exchange of hydrazone crosslinks and thus enhance the hydrogel stability. Therefore evaluation was performed to monitor the diffusion of 2, which was incorporated in the hydrogel at either about 25 mM or about 50 mM initial concentration, into the buffer solution after injection by monitoring its absorption at about 281 nm. After about 50 μL hydrogel was injected and immersed in about 1 mL PBS, about 60% of 2 diffused out of the hydrogel within about 1 h, and less than about 1% remained inside the gel after about 8 h (FIG. 5a). To examine whether the rapid diffusion and thus removal of catalyst can increase the long-term stability of the hydrogels, comparison is performed of the erosion rate of hydrogels with different initial concentrations of incorporated catalyst. […] Hydrogels initially containing about 25 mM or about 50 mM of catalyst 2 had erosion rates of about 3.8 and about 4.1% per day respectively, similar to those without a catalyst (FIG. 5b), presumably due to rapid diffusion of 2 out of the hydrogels. In contrast, when diffusion of 2 away from the hydrogel was prevented by immersing the hydrogel into a buffer solution containing about 25 mM of 2, the hydrogel was completely dissolved within about 12 h (FIG. 12). […]
(§2) HA hydrogels containing 0, about 25, and about 50 mM of catalyst 2 were prepared as described in the previous section. […] Catalyst diffusion was quantified using UV measurement by monitoring absorption at about 281 nm. HA erosion was quantified by uronic acid assay according to reported procedures.

Series [7] in a line: Catalyst diffusion out of hydrogel (UV absorption at about 281 nm). The series is classed as physicochemical. Conditions: about 50 μL hydrogel in about 1 mL PBS. Here is the method:
Long-term stability of hydrogel scaffolds is often desired to provide support for cell adhesion and growth after cell injection. Rapid hydrogel erosion is a challenge for many dynamic and injectable hydrogels. It is proposed that rapid passive diffusion of the dissolved small molecule catalyst away from the hydrogel post-injection would slow down the dynamic exchange of hydrazone crosslinks and thus enhance the hydrogel stability. Therefore evaluation was performed to monitor the diffusion of 2, which was incorporated in the hydrogel at either about 25 mM or about 50 mM initial concentration, into the buffer solution after injection by monitoring its absorption at about 281 nm. After about 50 μL hydrogel was injected and immersed in about 1 mL PBS, about 60% of 2 diffused out of the hydrogel within about 1 h, and less than about 1% remained inside the gel after about 8 h (FIG. 5a). […]
as §2

For series [8], the system named is HUVECs encapsulated in hydrogel. Description: In vitro cell injection and quantification of viability (LIVE/DEAD). Conditions: about 2 wt. % hydrogel with about 25 mM of 2, 28-gauge needle, about 20 min post-injection. The series is classed as cell-based, Human. How it is done: as §1
After injection, cells encapsulated in the hydrogels were incubated for about 20 min, and cell viability was then analyzed using a LIVE/DEAD staining assay.
Cell suspension was first mixed with HA-hydrazine stock solutions before further mixing with catalyst and HA-aldehyde stock solutions. All in vitro injection experiments were performed with about 30 μL gel volume containing about 3×10^4 cells. For cell injection, the final mixing stage was performed in the barrel of an about 1 mL insulin syringe fitted with a 28 gauge needle. […] Cell viability was determined using LIVE/DEAD viability/cytotoxicity kit (Invitrogen) at about 20 min post-injection and about 3 d post-injection (n=5). […] Cell numbers were quantified using ImageJ at each time point.

Where [9] appears, read: about 2 wt. % HA hydrogel, about 25 mM of 1.

In the case of `NCc1nc2ccccc2[nH]1` [catalyst 1, 2-(aminomethyl)benzimidazole], the entries for the “τ1/2, time for stress to relax to half of its original value” in series [1] (about 25 mM of 1) and in series [1] (about 100 mM of 1) were “about 10 min” and “about 3 min”, respectively. For the same compound, in series [1] (setting [9]), the “final plateau shear modulus” value was “about 800 Pa”. Moreover, the “time to reach final plateau shear modulus” value in series [1] (setting [9]) is recorded as “about 5 min”. Further, the gelation time entry in series [1] (about 2 wt. % HA hydrogel, about 25 mM of 1, about 37° C.) is recorded as “less than 60 s”. Also, the “time to reach equilibrium (gelation)” value in series [1] (about 2 wt. % HA hydrogel, about 100 mM of 1) is given as “about 3 min”. The “remoldability after pressing from about 2.4 mm to about 0.6 mm for about 5 min” value in series [2] was “adopted the height of the mold”. Also, the “k1, rate of hydrazone formation” value came to 127 M⁻¹ s⁻¹ in series [3] (25 mM of 1), 250 M⁻¹ s⁻¹ in series [3] (50 mM of 1) and 495 M⁻¹ s⁻¹ in series [3] (100 mM of 1). In addition, the figures for the “k−1, rate of hydrazone cleavage” value in series [3] (25 mM of 1), in series [3] (50 mM of 1) and in series [3] (100 mM of 1) were 0.00103 s⁻¹, 0.00203 s⁻¹ and 0.00401 s⁻¹, respectively. In addition, the figures for the “enhancement of k1” value in series [3] (about 25 mM of 1), in series [3] (about 50 mM of 1) and in series [3] (about 100 mM of 1) were “about 24 fold”, “about 47 fold” and “about 94 fold”, respectively. For the same compound, the “enhancement of k−1” value in series [3] (about 25 mM of 1) is listed as “about 24 fold”; in series [3] (about 50 mM of 1) it was “about 47 fold”; in series [3] (about 100 mM of 1) it was “about 94 fold”. Besides, in series [4] (about 25 mM, within several hours), the HUVEC cell death entry is “Significant cell death”.
Turning to `NCc1nc2ccccc2n1CCCS(=O)(=O)O` [catalyst 2], the “injectability through 28-gauge needle” value in series [5] is “readily ejected through the thin needle without clogging”. Moreover, the “time to complete dissolution of hydrogel” value in series [6] (hydrogel immersed in buffer containing about 25 mM of 2 (diffusion prevented)) is at most 12 h. Further, the erosion rate entry in series [6] (hydrogel initially containing about 25 mM of catalyst 2) is “about 3.8 % per day”; in series [6] (hydrogel initially containing about 50 mM of catalyst 2), “about 4.1 % per day”. In addition, the “fraction of catalyst remaining inside the gel” value in series [7] (after about 8 h) is listed as “less than 1%”. Also, in series [7] (within about 1 h, about 25 or 50 mM initial), the “fraction of catalyst diffused out of the hydrogel” value was “about 60%”. Also, the HUVEC cell death entry in series [4] (about 5 mM, after about 3 days) is on record as “negligible cell death”. Besides, the cells remaining viable entry in series [4] (about 25 mM, about 24 h exposure) is “about 85%”. The “cell viability after injection” value in series [8] is reported as “about 87%”.
